{"source": "patent US20110118355A1", "about": "“TREATMENT OF MIGRAINE HEADACHES USING ANTIESTROGENS” (priority 2007, published 2011)", "origin": "cited, not measured here", "settings": "one person, no aura, headache accompanied by fever; Letter to the Editor, Headache 32:315 (1992)", "data": [{"smiles": "CCN(CC)CCOc1ccc(C(=C(Cl)c2ccccc2)c2ccccc2)cc1", "note": "[clomiphene]", "values": [{"measurement": "clinical benefit in headaches diagnosed as common migraine", "result": "benefited"}]}]}
